From patent US20240043427A1 (Gilead Sciences, Inc., priority 2020, published 2024)

Target: CD73 (Homo sapiens (Human), UniProt P21589)
Assay type: biochemical
Conditions: 1 mM NaH2PO4 in enzyme buffer, CD73 0.3 nM, AMP 15 uM

Sequence of CD73 (P21589 27-574): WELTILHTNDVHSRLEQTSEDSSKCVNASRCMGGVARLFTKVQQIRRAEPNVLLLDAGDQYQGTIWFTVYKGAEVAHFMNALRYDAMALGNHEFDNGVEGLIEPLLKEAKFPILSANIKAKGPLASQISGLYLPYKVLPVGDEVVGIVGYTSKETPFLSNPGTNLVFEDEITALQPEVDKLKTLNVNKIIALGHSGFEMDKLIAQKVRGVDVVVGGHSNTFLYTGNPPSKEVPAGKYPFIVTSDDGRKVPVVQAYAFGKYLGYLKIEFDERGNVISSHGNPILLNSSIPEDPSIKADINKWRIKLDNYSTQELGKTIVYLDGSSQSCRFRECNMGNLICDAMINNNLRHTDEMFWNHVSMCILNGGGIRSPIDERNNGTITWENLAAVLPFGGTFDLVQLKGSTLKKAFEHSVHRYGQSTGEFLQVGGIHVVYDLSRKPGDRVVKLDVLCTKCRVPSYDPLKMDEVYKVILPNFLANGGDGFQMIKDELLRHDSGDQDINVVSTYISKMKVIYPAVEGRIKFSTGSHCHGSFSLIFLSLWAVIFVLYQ

| Structure (SMILES) | IC50 [nM] |
| --- | --- |
| O=c1[nH]cc(-c2cc([C@H]3C[C@@H]3c3cnn(C(F)F)c3)c3ncc(F)n3n2)c(=O)[nH]1 (racemic) [Example 370, 5-(8-((1S,2S)-2-(1-(difluoromethyl)-1H-pyrazol-4-yl)cyclopropyl)-3-fluoroimidazo[1,2-b]pyridazin-6-yl)pyrimidine-2,4(1H,3H)-dione] | 4.02 |
| O=c1[nH]cc(-c2cc([C@H]3C[C@@H]3c3ccc4c(F)nn(CC(F)(F)F)c4c3)c3nccn3n2)c(=O)[nH]1 (racemic) [Example 117, 5-(8-((1S,2S)-2-(3-fluoro-1-(2,2,2-trifluoroethyl)-1H-indazol-6-yl)cyclopropyl)imidazo[1,2-b]pyridazin-6-yl)pyrimidine-2,4(1H,3H)-dione] | 0.89 |
| O=c1[nH]cc(-c2cc([C@H]3C[C@@H]3c3ccc(OC(F)(F)F)cn3)c3nccn3n2)c(=O)[nH]1 (racemic) [Example 372, 5-(8-((1S,2S)-2-(5-(trifluoromethoxy)pyridin-2-yl)cyclopropyl)imidazo[1,2-b]pyridazin-6-yl)pyrimidine-2,4(1H,3H)-dione] | 3.4 |
| O=c1[nH]cc(-c2cc([C@H]3C[C@@H]3c3ccc4cnccc4c3)c3nccn3n2)c(=O)[nH]1 (racemic) [Example 156, 5-(8-((1S,2S)-2-(isoquinolin-6-yl)cyclopropyl)imidazo[1,2-b]pyridazin-6-yl)pyrimidine-2,4(1H,3H)-dione] | 0.95 |
| O=c1[nH]cc(-c2cc([C@H]3C[C@@H]3c3cc4c(cn3)cnn4CC(F)(F)F)c3ncc(Cl)n3n2)c(=O)[nH]1 (racemic) [Example 471, 5-(3-chloro-8-((1S,2S)-2-(1-(2,2,2-trifluoroethyl)-1H-pyrazolo[4,3-c]pyridin-6-yl)cyclopropyl)imidazo[1,2-b]pyridazin-6-yl)pyrimidine-2,4(1H,3H)-dione] | 0.7 |
| O=C(c1ccc([C@H]2C[C@@H]2c2cc(-c3c[nH]c(=O)[nH]c3=O)nn3ccnc23)cc1)N1CCC(F)(F)C1 (racemic) [Example 305, 5-(8-((1S,2S)-2-(4-(3,3-difluoropyrrolidine-1-carbonyl)phenyl)cyclopropyl)imidazo[1,2-b]pyridazin-6-yl)pyrimidine-2,4(1H,3H)-dione] | 4.81 |
| O=c1[nH]cc(-c2cc(N3CCC(CC(F)(F)F)C3)c3nccn3n2)c(=O)[nH]1 (racemic) [Example 452, 5-(8-(3-(2,2,2-trifluoroethyl)pyrrolidin-1-yl)imidazo[1,2-b]pyridazin-6-yl)pyrimidine-2,4(1H,3H)-dione] | 95.3 |
| O=c1[nH]cc(-c2cc([C@H]3C[C@@H]3c3ccc4c(c3)OC(F)(F)O4)c3ncc(F)n3n2)c(=O)[nH]1 (racemic) [Example 278, 5-(8-((1S,2S)-2-(2,2-difluorobenzo[d][1,3]dioxol-5-yl)cyclopropyl)-3-fluoroimidazo[1,2-b]pyridazin-6-yl)pyrimidine-2,4(1H,3H)-dione] | 3.69 |
| O=c1[nH]cc(-c2cc([C@H]3C[C@@H]3c3ccc4cccnc4c3)c3nccn3n2)c(=O)[nH]1 (racemic) [Example 154, 5-(8-((1S,2S)-2-(quinolin-7-yl)cyclopropyl)imidazo[1,2-b]pyridazin-6-yl)pyrimidine-2,4(1H,3H)-dione] | 1.56 |
| O=c1[nH]cc(-c2cc([C@H]3C[C@@H]3c3cc4c(cnn4CC(F)(F)F)cc3F)c3ncc(F)n3n2)c(=O)[nH]1 [Example 613, 5-(3-fluoro-8-((1S,2S)-2-(5-fluoro-1-(2,2,2-trifluoroethyl)-1H-indazol-6-yl)cyclopropyl)imidazo[1,2-b]pyridazin-6-yl)pyrimidine-2,4(1H,3H)-dione] | 0.58 |
| O=c1[nH]cc(-c2cc([C@H]3C[C@@H]3c3ccc(C(F)(F)F)cc3F)c3nccn3n2)c(=O)[nH]1 (racemic) [Example 165, 5-(8-((1S,2S)-2-(2-fluoro-4-(trifluoromethyl)phenyl)cyclopropyl)imidazo[1,2-b]pyridazin-6-yl)pyrimidine-2,4(1H,3H)-dione] | 5.06 |
| O=c1[nH]cc(-c2cc([C@H]3C[C@@H]3c3ccc(C(F)(F)F)cc3)c3ncc(F)n3n2)c(=O)[nH]1 (racemic) [Example 183, 5-(3-fluoro-8-((1S,2S)-2-(4-(trifluoromethyl)phenyl)cyclopropyl)imidazo[1,2-b]pyridazin-6-yl)pyrimidine-2,4(1H,3H)-dione] | 2.52 |
| O=c1[nH]cc(-c2cc([C@H]3C[C@@H]3c3cc(OCC(F)(F)F)c4ncccc4c3)c3nccn3n2)c(=O)[nH]1 (racemic) [Example 732, 5-(8-((1S,2S)-2-(8-(2,2,2-trifluoroethoxy)quinolin-6-yl)cyclopropyl)imidazo[1,2-b]pyridazin-6-yl)pyrimidine-2,4(1H,3H)-dione] | 2.66 |
| CC1(C)C(=O)N(CC(F)(F)F)c2cc([C@H]3C[C@@H]3c3cc(-c4c[nH]c(=O)[nH]c4=O)nn4c(Cl)cnc34)ccc21 (racemic) [Example 212, 5-[3-chloro-8-[(1S,2S)-2-[3,3-dimethyl-2-oxo-1-(2,2,2-trifluoroethyl)indolin-6-yl]cyclopropyl]imidazo[1,2-b]pyridazin-6-yl]-1H-pyrimidine-2,4-dione] | 1.24 |
| O=C(c1cccc([C@H]2C[C@@H]2c2cc(-c3c[nH]c(=O)[nH]c3=O)nn3ccnc23)c1)N1C[C@@H](F)[C@@H](F)C1 (racemic) [Example 302, 5-(8-((1S,2S)-2-(3-((3S,4R)-3,4-difluoropyrrolidine-1-carbonyl)phenyl)cyclopropyl)imidazo[1,2-b]pyridazin-6-yl)pyrimidine-2,4(1H,3H)-dione] | 3.08 |
| O=c1[nH]cc(-c2cc([C@H]3C[C@@H]3c3cncc(F)c3)c3nccn3n2)c(=O)[nH]1 (racemic) [Example 164, 5-(8-((1S,2S)-2-(5-fluoropyridin-3-yl)cyclopropyl)imidazo[1,2-b]pyridazin-6-yl)pyrimidine-2,4(1H,3H)-dione] | 3.58 |
| O=c1[nH]cc(-c2cc([C@H]3C[C@@H]3c3ccccn3)c3ncc(F)n3n2)c(=O)[nH]1 (racemic) [Example 178, 5-(3-fluoro-8-((1S,2S)-2-(pyridin-2-yl)cyclopropyl)imidazo[1,2-b]pyridazin-6-yl)pyrimidine-2,4(1H,3H)-dione] | 2.65 |
| O=c1[nH]cc(-c2cc([C@H]3C[C@@H]3c3cnn(C(F)F)c3)c3ncc(F)n3n2)c(=O)[nH]1 [Example 371, 5-(8-((1S,2S)-2-(1-(difluoromethyl)-1H-pyrazol-4-yl)cyclopropyl)-3-fluoroimidazo[1,2-b]pyridazin-6-yl)pyrimidine-2,4(1H,3H)-dione] | 4.95 |
| O=c1[nH]cc(-c2cc([C@H]3C[C@@H]3c3ccn(C(F)F)n3)c3nccn3n2)c(=O)[nH]1 (racemic) [Example 369, 5-(8-((1S,2S)-2-(1-(difluoromethyl)-1H-pyrazol-3-yl)cyclopropyl)imidazo[1,2-b]pyridazin-6-yl)pyrimidine-2,4(1H,3H)-dione] | 21.5 |
| O=c1[nH]cc(-c2cc([C@H]3C[C@@H]3c3cnc4ccccc4c3)c3nccn3n2)c(=O)[nH]1 (racemic) [Example 163, 5-(8-((1S,2S)-2-(quinolin-3-yl)cyclopropyl)imidazo[1,2-b]pyridazin-6-yl)pyrimidine-2,4(1H,3H)-dione] | 2.13 |
| O=c1[nH]cc(-c2cc([C@H]3C[C@@H]3c3cccnc3)c3ncc(F)n3n2)c(=O)[nH]1 (racemic) [Example 180, 5-(3-fluoro-8-((1S,2S)-2-(pyridin-3-yl)cyclopropyl)imidazo[1,2-b]pyridazin-6-yl)pyrimidine-2,4(1H,3H)-dione] | 2.2 |
